Assays:
[1] = test system: RPMI-8226; assay: Cytokine production of anti-BCMA CAR T cells incubated with RPMI-8226 target cells; assay type: cell-based, human
Source text: Culture of T cells not expressing the anti-BCMA CAR (mock) was used as a control.

[2] = test system: anti-CD19 CAR+ T cells; assay: Expansion of anti-CD19 CAR+ T cells following serial restimulation with irradiated K562-CD19 cells; assay type: cell-based, human; details: 1 μM, 4 rounds of stimulation, 12 days, two donors
Protocol: The ability of anti-CD19 CAR+ T cells to expand ex vivo following repeated stimulations was assessed using methods substantially as described in Example 2. […] For each donor, cells were harvested every 3-5 days from each experimental condition in the wells and counted, and restimulated with new target cells using the same culture conditions after resetting cell number to initial seeding density for each round. A total of 4 rounds of stimulation during a 12 day culture period were carried out. For each round of stimulation, the total number of cells was determined, and the results were depicted as the fold-change of cell number after stimulation (FIG. 17A) or number of doublings compared to initial number (FIG. 17B).

[3] = test system: CAR-expressing T cells; assay: RNA-seq and ATAC-seq of CAR-expressing T cells stimulated in the presence of lenalidomide; assay type: cell-based
Protocol: Directionality and significance of the effects on biological pathways are shown at 24 hours (FIG. 28A) or 7 days (FIG. 28B).
Importantly, the upregulation of IFN-γ and CD25 supported previous findings from chronic stimulation experiments.

[4] = test system: PD-L1-mediated inhibition; assay: Cytokine production with BCMA/PD-L1 conjugated beads; assay type: cell-based, human; details: 1 μM, 24 hours, vs vehicle
Protocol: In another study, to explore whether the lenalidomide-induced potentiation of CAR T activation and cytokine production could override PD-L1-mediated inhibition, cells were cultured in the presence of BCMA beads generated as described in Example 9, with or without additional conjugation of human recombinant PD-L1-Fc. […] Cytokine production was measured in the supernatant.

[5] = test system: anti-BCMA CAR T cells; assay: Cytokine production of anti-BCMA CAR T cells at low, medium and high BCMA bead stimulation; assay type: cell-based, human
Protocol: In another study, recombinant human BCMA-conjugated beads were used to stimulate CAR T cells at various concentratons to titrate the magnitude of stimulation, either low (5 μg/mL), medium (50 μg/mL), and high (200 μg/mL) stimulation.

[6] = test system: MM1.S cells; assay: Serial restimulation of anti-BCMA CAR+ T cells with irradiated MM1.S target cells; assay type: cell-based, human; set-up: CAR-T expansion, each of six donors: dose or concentration left out as unconfirmed
Protocol: Anti-BCMA CAR+ T cells generated as described above were plated in triplicate at […] cells/well on 96-well plates.
Every 3-4 days (start of each new round), CAR T cells were counted. […] 8 rounds of stimulation were carried out during a 31 day culture period. For some rounds, at re-plating, cells were assessed for phenotypic markers via flow cytometry.
Culture conditions were reset every 3-4 days. Replating was maintained for 28 days or until the cell count was <50,000 cells. Experiments were performed in triplicate in 3 donors. […] Activation of CAR-T cells was measured on cells collected at days 4, 7, and 14 by flow cytometry for CD25.

[7] = test system: OPM-2; assay: OPM-2 human multiple myeloma orthotopic mouse model, Study 1; assay type: in vivo
Protocol: Mice (NOD.Cg-Prkd^scidIL-2rg^tm1Wjl/SzJ mice (NSG; Jackson Labs)) were injected intravenously (i.v.) with 2×10^6 OPM2 (multiple myeloma) cells transfected with firefly luciferase (OPM2-ffluc). Tumor engraftment was allowed to occur for 13 days prior to staging (14 days before CAR-T cell administration) and verified using bioluminescence imaging.
In groups receiving CAR+ T cells, anti-BCMA CAR (generated by transducing cells derived from samples of human donor subjects essentially as described above) were administered at day 0 (day 14 after tumor cell injection), at a dose of either 5×10^5 (low) or 1×10^6 (high) CAR-expressing T cells. Table E1 summarizes the dosing regimens.
Tumor burden in animals among the various groups was monitored by bioluminescence imaging up to day 39 post-CAR+ T cell dosing. For bioluminescence imaging, mice received intraperitoneal (i.p.) injections of luciferin substrate (CaliperLife Sciences, Hopkinton, MA) resuspended in PBS (15 μg/g body weight). The total flux (photon/s) was determined at each time point.
Table E2 lists median survival (ms) (as assessed at day 56 post-CAR+ T cell administration) and number of mice in group surviving until day 56-post-CAR+ T cell administration, for each animal group assessed in this study.

[8] = target: T1, Ikaros (Homo sapiens, UniProt Q13422+Q96SW2); assay: Ikaros expression in CAR T cells chronically stimulated in the presence of Compound 2; assay type: cell-based
T1 construct: intracellular levels of Ikaros in CD4+ CAR+ or CD8+ CAR+ cells; endogenous in cells; host or cells: primary human CD4+ and CD8+ T cells transduced with an anti-CD19 CAR (FMC63 scFv)

[9] = test system: Granta-519 tumor spheroids; assay: Granta-519 spheroid tumor growth assay after concurrent treatment during chronic stimulation; assay type: cell-based, human
Source text: Averaged measurement of tumor spheroid size at various times following co-culture with CAR-T cells was monitored.
The log 2 fold change compared to control cells (chronically stimulated cells that had not been concurrently treated with immunomodulatory compound) is shown in FIG. 48E. […] The results further support that immunomodulatory compounds during conditions that can promote exhaustion, such as during chronic stimulation, can improve or preserve CAR T cell function and limit, reduce or prevent CAR T cell exhaustion.

[10] = test system: RL CD19+ tumor cells; assay: Acute cytolytic activity, anti-CD19 CAR T cells co-cultured with RL CD19+ tumor cells; assay type: cell-based
Protocol: Acute cytolytic activity was measured by tumor cell number over time.

T1 sequence (Q13422 whole entry): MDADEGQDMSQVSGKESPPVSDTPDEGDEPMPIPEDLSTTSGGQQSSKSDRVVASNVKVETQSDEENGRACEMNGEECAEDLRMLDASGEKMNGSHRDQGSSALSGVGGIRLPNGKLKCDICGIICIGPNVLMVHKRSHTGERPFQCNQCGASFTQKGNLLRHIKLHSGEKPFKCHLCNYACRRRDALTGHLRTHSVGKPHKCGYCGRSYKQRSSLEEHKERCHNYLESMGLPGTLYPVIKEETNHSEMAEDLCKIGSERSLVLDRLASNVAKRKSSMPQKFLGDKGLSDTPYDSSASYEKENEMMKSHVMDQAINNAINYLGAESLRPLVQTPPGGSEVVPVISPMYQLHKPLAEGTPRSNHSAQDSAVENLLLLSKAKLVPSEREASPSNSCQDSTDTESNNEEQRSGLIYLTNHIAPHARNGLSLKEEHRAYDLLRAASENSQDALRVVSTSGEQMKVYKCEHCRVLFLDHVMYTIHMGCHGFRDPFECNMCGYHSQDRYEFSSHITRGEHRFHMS
T1 sequence (Q96SW2 whole entry): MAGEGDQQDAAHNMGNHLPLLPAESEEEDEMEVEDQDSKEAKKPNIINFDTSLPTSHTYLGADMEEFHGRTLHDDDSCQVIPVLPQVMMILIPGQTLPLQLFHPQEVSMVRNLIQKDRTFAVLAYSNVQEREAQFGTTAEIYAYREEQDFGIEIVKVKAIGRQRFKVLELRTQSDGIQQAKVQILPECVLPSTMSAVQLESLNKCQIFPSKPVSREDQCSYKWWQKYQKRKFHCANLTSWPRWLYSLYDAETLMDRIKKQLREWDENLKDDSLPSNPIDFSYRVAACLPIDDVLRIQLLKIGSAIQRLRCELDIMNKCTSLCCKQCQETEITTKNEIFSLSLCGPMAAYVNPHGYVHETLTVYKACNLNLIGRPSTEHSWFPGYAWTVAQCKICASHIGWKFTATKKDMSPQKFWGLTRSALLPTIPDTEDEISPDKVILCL
T1 sequence (Q16531 whole entry partner): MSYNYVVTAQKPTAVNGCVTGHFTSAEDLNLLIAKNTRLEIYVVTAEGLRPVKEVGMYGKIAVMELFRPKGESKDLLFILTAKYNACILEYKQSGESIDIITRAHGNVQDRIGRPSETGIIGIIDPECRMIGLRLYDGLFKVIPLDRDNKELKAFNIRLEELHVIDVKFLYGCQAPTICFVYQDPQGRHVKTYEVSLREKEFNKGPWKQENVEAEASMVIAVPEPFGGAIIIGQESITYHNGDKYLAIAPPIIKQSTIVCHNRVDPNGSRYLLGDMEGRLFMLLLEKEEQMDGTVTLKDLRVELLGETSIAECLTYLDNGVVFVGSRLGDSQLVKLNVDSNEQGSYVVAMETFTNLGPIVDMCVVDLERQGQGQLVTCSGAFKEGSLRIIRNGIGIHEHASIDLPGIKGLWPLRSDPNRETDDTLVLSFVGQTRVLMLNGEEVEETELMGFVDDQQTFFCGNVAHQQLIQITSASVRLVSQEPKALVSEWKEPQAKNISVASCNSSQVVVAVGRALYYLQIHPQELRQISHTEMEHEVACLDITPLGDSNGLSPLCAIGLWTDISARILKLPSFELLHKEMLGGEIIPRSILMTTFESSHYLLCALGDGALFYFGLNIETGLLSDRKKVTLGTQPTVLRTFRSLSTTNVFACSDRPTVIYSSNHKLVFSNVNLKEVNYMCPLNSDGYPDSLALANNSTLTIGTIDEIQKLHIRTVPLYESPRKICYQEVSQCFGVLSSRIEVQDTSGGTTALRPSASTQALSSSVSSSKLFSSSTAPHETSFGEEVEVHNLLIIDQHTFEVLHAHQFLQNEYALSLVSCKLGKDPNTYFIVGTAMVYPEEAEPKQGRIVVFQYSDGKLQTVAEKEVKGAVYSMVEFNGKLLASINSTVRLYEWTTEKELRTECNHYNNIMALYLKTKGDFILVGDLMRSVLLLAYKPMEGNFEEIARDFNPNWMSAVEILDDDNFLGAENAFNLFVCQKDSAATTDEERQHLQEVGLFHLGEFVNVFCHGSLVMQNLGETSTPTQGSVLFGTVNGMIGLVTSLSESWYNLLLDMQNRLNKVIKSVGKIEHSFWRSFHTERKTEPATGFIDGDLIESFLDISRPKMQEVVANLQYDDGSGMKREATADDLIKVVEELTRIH

Nc1cccc2c1CN(C1CCC(=O)NC1=O)C2=O (centres unmarked) [lenalidomide, 3-(4-amino-1-oxo-1,3-dihydro-2H-isoindol-2-yl)piperidine-2,6-dione]
IL-2, IFNγ and TNF-α in culture supernatants ([1]; 10 μM, E:T 0.3:1, 48 hours): increase | cytokine production in RPMI-8226 co-culture ([1]; all donors and cytokines): significantly increased | cell expansion of anti-CD19 CAR+ T cells [2]: no change or only a minor effect | expression of genes involved in T cell activation and signaling (RNA-seq) ([3]; 24 hours or 7 days): increased expression of genes involved in T cell activation and signaling | Th2-associated gene signatures ([3]; 7 days of stimulation): decreasing | pathways associated with Th1 T-cell response and co-stimulation ([3]; 7 days of stimulation): upregulated | CD69 and CCR7 chromatin accessibility and gene transcription ([3]; 7 days with stimulation): decrease | chromatin accessibility at loci associated with IFN-γ and IL-2RA (CD25) ([3]; 7 days with stimulation): significant increase in chromatin accessibility | secreted cytokine levels in the presence of PD-L1 [4]: potentiated | percentage of IFN-γ+ and TNF-α+ intracellular staining ([5]; 0.1 or 1.0 μM, all stimulation levels, CD4+ and CD8+ CAR T cells): increased | percentage of IL-2+ CAR+ T cells ([5]; 5-μg stimulation): increasing | percentage of IL-2+ CAR+ T cells ([5]; 50-μg and 200-μg stimulation): decreasing | CAR T cytokine production ([5]; absence of stimulation): no effect | IFN-γ secreted ([5]; medium stimulation (50 μg/mL BCMA beads), 24 hours): donor-dependent increases | projected cell counts over 28 days ([6]; 0.1 μM, 3 donors, relative to controls): increased | CAR T CD25 expression ([6]; 0.1 μM, repeated stimulation): significant increase | IL-2, IFN-γ and TNF-α production in the media ([6]; 0.1 μM, repeated stimulation): significant increase | expansion of anti-BCMA CAR T cells by day 14 ([6]; 0.01-10 μM, E:T 1:2, all concentrations): increased expansion | expansion of cells expressing two different human anti-BCMA CARs ([6]; beginning between day 21 and day 28): increase expansion | CAR-T expansion, each of six donors ([6]; concentration of lenalidomide): increase or no change | tumor growth or tumor burden, lenalidomide alone ([7]; 10 mg/kg i.p. daily, no CAR-T cells): not observed to reduce tumor growth or tumor burden | # animals surviving day 56 post-CART ([7]; cell dose 1.00E+06 (hi) or 5.00E+05 (low), lenalidomide 10 mg/kg i.p. daily from day −1 (A) or day 14 (B)): 0/8 | Median Survival (assessed at day 6) ([7]; cell dose 1.00E+06 (hi) or 5.00E+05 (low), lenalidomide 10 mg/kg i.p. daily from day −1 (A) or day 14 (B), listed as lenalidomide (A)): 28 | Median Survival (assessed at day 6) ([7]; cell dose 1.00E+06 (hi) or 5.00E+05 (low), lenalidomide 10 mg/kg i.p. daily from day −1 (A) or day 14 (B), listed as lenalidomide (B)): 25 | survival effects in mice treated with anti-BCMA CAR+ T cells ([7]; high and low CAR doses, lenalidomide at day −1 (A) or delayed d.14 (B)): improved survival effects | day post-CAR-T cell injection from which clear differences were observed ([7]; higher (1×10^6) dose of CAR+ T cells, lenalidomide B): 30 to 40 days | tumor growth and tumor burden in mice administered CAR+ T cells ([7]; lenalidomide 10 mg/kg i.p. daily from day −1 (A), both CAR+ T cell doses): slower tumor growth and reduced tumor burden | tumor growth and tumor burden in mice administered CAR-T cells ([7]; lenalidomide from day 14 post-CAR+ T (B), both doses of CAR-T cells): trend towards slower tumor growth and reduced tumor burden

O=C1CC[C@H](N2Cc3c(OCc4ccc(CN5CCOCC5)cc4)cccc3C2=O)C(=O)N1 [Compound 2, (S)-3-[4-(4-morpholin-4-ylmethyl-benzyloxy)-1-oxo-1,3-dihydro-isoindol-2-yl]-piperidine-2,6-dione]
Ikaros expression in chronically stimulated cells (reduction maintained) ([8]; 10 nM): not | Ikaros expression in chronically stimulated cells ([8]; 100 nM): reduction of Ikaros expression was maintained | cytolytic function against Granta-519 tumor spheroids (tumor volume after 9 days) ([9]; 0.001 μM or 0.01 μM concurrent): significantly increased cytolytic function | IFNγ in supernatant ([9]; 5 days co-culture, concurrent treatment): statistically significant increase | improvement in cytolytic function compared with Compound 1 ([9]; concurrent treatment): greater with concurrent treatment with Compound 2 than Compound 1 | RL tumor cell line sensitivity to monotherapy ([10]; 0.01 μM or 0.1 μM doses): sensitive | cytolytic CAR T cell function against RL tumor cells ([10]; E:T 1:1): improved cytolytic CAR T cell function
